Experiments:
[1] = In vitro de-glycosylation of nootkatol-glucoside by glycosidase enzymes, LC-MS; assay type: biochemical; details: water control, Delft fermentation medium, 2 hours
Protocol: Identical samples of 990 μl of Delft fermentation medium further comprising 0.1 mg nootkatol-glucoside (Nootkatol-Glc) were each treated with 10 μl of 12 exemplary glycosidase enzymes (listed in Table 3 below) (thus, 1% v/v) for 2 hours. After 2 hours, samples of the reaction mixture were taken, and the de-glycosylation reaction was terminated by addition of an equal volume of ethanol followed by freezing.
The resulting digested samples were analyzed by LC-MS on a BEH C18-column (100 mm×2.1 mm, 5 μm). Mobile phase A was 0.1% formic acid in water, and mobile phase B was 0.1% formic acid in acetonitrile. B concentration gradient was 0-1 min, 1%; 1-5 min, 100%; 5-7 min, 100%; 7-7.1 min, 1%; 7.1-9 min, 1%. The injection volume was 5 μL. Mass spectrometry analysis was carried out on an SQD1 detector (3.4 KV capillary, 37 V cone, 3 V extractor, 0.1 V RF lens) at a source temperature of 150° C. and desolvation temperature of 250° C., with full scan ESI+/−(100-900 amu scan range) and selective ion recording.

[2] = system: wild-type MATa strain ATCC 28383; assay: Growth-inhibitory effect on yeast, cell viability by plating (CFU); assay type: cell-based, S. cerevisiae; details: 0.5 g/L, 5 h of exposure, plated on YPD
Protocol: A 20 mL seed culture of wild-type MATa strain ATCC 28383 was grown in SD-THUL medium (0.67 Bacto yeast nitrogen base without amino acids, 2% glucose, 0.14% yeast synthetic drop-out medium without uracil, tryptophan, histidine and leucine). The culture was grown for 24 h, and 2.5 mL of the culture was used to inoculate 7 equal batches of 50 mL fermentation medium (2% (NH4)2SO4, 2% KH2PO4, 0.1% NaCl, 0.6% MgSO4.7H2O, 0.4% yeast extract, 1 mL mineral solution [FeSO4.7H2O 0.028%, ZnSO4.7H2O 0.029%, CuSO4.5H2O 0.008%, Na2MoO4.2H2O 0.024%, CoCl2.6H2O 0.024%, MnSO4.H2O 0.017%, HCl 1 mL], 0.5 mL 50% glucose, 1.5 mL vitamin solution [biotin 0.001%, Ca-pantothenate 0.012%, inositol 0.06%, pyridoxine-HCl 0.012%, thiamine-HCl 0.012%], and 0.5 mL 10% CaCl2) in 250 mL baffled Ehrlenmeyer flasks.
In 6 flasks, nootkatol or glycosylated nootkatol (nootkatol+1 glucose) were added in final concentrations of 0.06, 0.125, and 0.5 g/L. The 7th flask was used as a control and was not treated with nootkatol or glycosylated nootkatol. The cultures were grown at 28° C. and 170 rpm, and the cell viability was measured after 5 h of exposure by plating 100 μL of 1/1000 dilution of cell culture on yeast extract peptone dextrose (YPD) plates.

For `C=C(C)C1CCC2=CC(OC3OC(CO)C(O)C(O)C3O)CC(C)C2(C)C1` (centres unmarked) [glycosylated nootkatol], the spontaneous de-glycosylation [1] was “weak spontaneous de-glycosylation” and the “toxicity (cell viability)” value [2] was “no toxicity was observed”.
